Values joined by “and” are separate entries in the source; they are usually repeats but may differ in a detail not shown here. Equal entries are not always repeated.
Columns and labels:
[1] = system: BT145 patient-derived GSC line; experiment: CellTiter-Glo dose-response cell viability assay; type: cell-based, human
Experimental: QST (JNJ-26481585) is a second-generation hydroxamic acid harboring remarkable selectivity toward class I HDACs, with a biochemical IC50 of 0.1 nM for HDAC1 ([13]). […] To determine the cytotoxic effects of QST, we performed a dose-titration cell viability assay in 7 patient-derived GSC lines (BT145, GB187, GB239, GB282, GB71, GB82, and GB126) and 1 long-term serum-grown human GBM cell line (U87). Because GBMs display a high degree of intratumoral heterogeneity, we used GSCs derived from both primary and recurrent GBMs that harbored distinct genetic mutations or aberrations, growth rates, MGMT promoter methylation status, and gene expression profiles (Supplemental Figure 1; supplemental material available online with this article; https://doi.org/10.1172/jci.insight.167081DS1). Cell lines were treated with various concentrations of QST (10–1000 nM), and cell viability was measured 3–5 days later (Figure 1, A and B). […] Treatment with QST at the IC50 induced significant inhibition of proliferation (Ki67) and an increase in programmed cell death (cleaved caspase 3) in 2 different GSC lines (Figure 1, C and D). Additional analyses confirmed that QST induces apoptosis after short-term treatment through increased staining of the apoptotic marker annexin V (Figure 2A) and cell cycle arrest (in G2- or S-phase; Figure 2B and Supplemental Figure 1B).
(§1) GSCs were seeded in laminin-coated tissue culture–treated 96-well plates (clear bottom, white plate; Corning) at a density of 1000–5000 cells per well (cell line dependent) in GSC media. U87-MG were seeded using their normal growth conditions without laminin (10% bovine calf serum in DMEM). All cells were incubated at 37°C and allowed to adhere overnight. The next day, cells were treated with incremental concentrations of QST (Selleckchem; 0, 10, 25, 50, 100, 250, 500, and 1000 nM) diluted in media. Cells treated without QST were treated with DMSO diluted in media. Following treatment with QST, cells were grown for 3 to 5 days (cell line dependent), and cell viability was measured and quantified. All cell viability measurements were performed using the CellTiter-Glo luminescent cell viability assay (Promega) following the manufacturer’s instructions. For the sulforhodamine B colorimetric assay for cytotoxicity, the protocol was performed as described elsewhere ([33]). All cell viability results represent the mean of at least 3 biological replicates, each containing 3 technical replicates.

[2] = Dose-response cell viability assay in normal astrocytes; type: cell-based, human; settings: human, primary human astrocytes (NHA), NHA, 3 days, read-out: Cell viability (fraction of DMSO control)
Experimental: as §1
(§2) Supplemental Figure 5. QST induces cell death in tumor tissue but not surrounding normal
(§3) brain tissue in vivo. (A) Dose-response curves with QST (10–1000 nM) in primary human
(§4) astrocytes. Cell viability 3 days after treatment with QST. […]

[3] = system: primary human astrocytes (NHA); experiment: as above; type: cell-based; settings: for Cell viability (fraction of DMSO control): NHA, 3 days
Experimental: as §1, §2, §3, §4

[4] = system: BT145 cells; experiment: Cell cycle analysis, propidium iodide flow cytometry; type: cell-based, human
Experimental: (§5) For cell cycle analysis following short -term DMSO or QST treatment in GSC cultures, approximately 1 million cells were harvested, washed in cold 1× PBS once, and fixed with 3–4 mL of ice cold 70% ethanol, added dropwise while vortexing. Cells were fixed on ice for 30 minutes and washed twice with 1× PBS. Cells were then resuspended in 500 μL of propidium iodide/RNAse staining buffer (BD Biosciences, 550825) for 15 minutes at room temperature before analysis. Data from all the samples were obtained using a Fortessa flow cytometer (BD Biosciences) and analyzed using the FlowJo software (TreeStar). Cell cycle analysis was performed in triplicate for all cell lines.

[5] = system: GB126 cells; experiment: as above; type: cell-based, human
Experimental: as §5

[6] = Body weight / tolerability in non-tumor-bearing mice; type: in vivo, athymic nude mice; settings: for weight of normal nude mice during QST treatment: QST 10 mg/kg, individual mice
[7] = system: HDAC2; parameters: method as in PMID 32608981; settings: cited from earlier work
[8] = QST at IC50, 24 hours, replicates

Cn1cc(CNCC2CCN(c3ncc(C(=O)NO)cn3)CC2)c2ccccc21 [QST, quisinostat]
IC50 ([1]; Homo sapiens, 3-5 days): 75 nM
viability at 0.01 µM ([1]; Homo sapiens, QST 10 nM (log[nM] 1), no IR, read-out: Cell viability (fraction of DMSO control)): 70%
viability at 0.025 µM ([1]; Homo sapiens, QST 25 nM (log[nM] 1.39794), no IR, read-out: Cell viability (fraction of DMSO control)): 64%
viability at 0.05 µM ([1]; Homo sapiens, QST 50 nM (log[nM] 1.69897), no IR, read-out: Cell viability (fraction of DMSO control)): 40%
viability at 0.1 µM ([1]; Homo sapiens, QST 100 nM (log[nM] 2), no IR, read-out: Cell viability (fraction of DMSO control)): 34.2%
viability at 0.25 µM ([1]; Homo sapiens, QST 250 nM (log[nM] 2.39794), no IR, read-out: Cell viability (fraction of DMSO control)): 25.7%
viability at 0.5 µM ([1]; Homo sapiens, QST 500 nM (log[nM] 2.69897), no IR, read-out: Cell viability (fraction of DMSO control)): 18.6%
viability at 1 µM ([1]; Homo sapiens, QST 1000 nM (log[nM] 3), no IR, read-out: Cell viability (fraction of DMSO control)): 13%
Cell viability (fraction of DMSO control) ([1]; QST 10 nM (log[nM] 1), no IR): 0.7896 and 0.7644
Cell viability (fraction of DMSO control) ([1]; QST 25 nM (log[nM] 1.39794), no IR): 0.7548 and 0.7039
Cell viability (fraction of DMSO control) ([1]; QST 50 nM (log[nM] 1.69897), no IR): 0.4986 and 0.5266
Cell viability (fraction of DMSO control) ([1]; QST 100 nM (log[nM] 2), no IR): 0.3524 and 0.2775
Cell viability (fraction of DMSO control) ([1]; QST 250 nM (log[nM] 2.39794), no IR): 0.3528 and 0.3396
Cell viability (fraction of DMSO control) ([1]; QST 500 nM (log[nM] 2.69897), no IR): 0.2416 and 0.229
Cell viability (fraction of DMSO control) ([1]; QST 1000 nM (log[nM] 3), no IR): 0.1715
viability at 3 days, 10 nM ([2]; QST 10 nM (log[nM] 1)): 60.9%
viability at 3 days, 25 nM ([2]; QST 25 nM (log[nM] 1.39794)): 46.7%
viability at 3 days, 50 nM ([2]; QST 50 nM (log[nM] 1.69897)): 36.5%
viability at 3 days, 100 nM ([2]; QST 100 nM (log[nM] 2)): 27.2%
Cell viability (fraction of DMSO control) ([3]; QST 10 nM (log[nM] 1)): 0.6995 and 0.7125
Cell viability (fraction of DMSO control) ([3]; QST 25 nM (log[nM] 1.39794)): 0.5597 and 0.5623
Cell viability (fraction of DMSO control) ([3]; QST 50 nM (log[nM] 1.69897)): 0.4582 and 0.5002
Cell viability (fraction of DMSO control) ([3]; QST 100 nM (log[nM] 2)): 0.3562 and 0.4332
sensitivity of primary human astrocytes to QST compared with GSCs ([3]; in vitro dose response assay): equally sensitive
Cell Cycle Phase (% of cells), G1 [4, 8]: 33.6% and 37% and 36.8%
Cell Cycle Phase (% of cells), G2 [4, 8]: 48.8% and 41.5% and 48%
Cell Cycle Phase (% of cells), S [4, 8]: 16.4% and 20.3% and 13.8%
Mean proportion of cells in G1 ([4]; QST, 24 hours): 36%
Mean proportion of cells in G2 ([4]; QST, 24 hours): 46%
Mean proportion of cells in S ([4]; QST, 24 hours): 17%
Cell Cycle Phase, G1 [5, 8]: 37.77 and 45.07 and 43.79
Cell Cycle Phase, G2 [5, 8]: 7.41 and 0 and 1.63
Cell Cycle Phase, S [5, 8]: 54.82 and 54.93 and 54.58
Mean proportion of cells in G1 ([5]; QST, 24 hours): 42%
Mean proportion of cells in G2 ([5]; QST, 24 hours): 3%
Mean proportion of cells in S ([5]; QST, 24 hours): 55%
tolerability (weight loss) ([6]; 10 mg/kg IP MWF for 2 weeks, non-tumor-bearing athymic nude mice): well tolerated
weight of normal nude mice during QST treatment ([6]; treatment day 1): 28.1 g (2×) and 28.4 g and 26.7 g and 26.2 g and 20.2 g
weight of normal nude mice during QST treatment ([6]; treatment day 2): 27.9 g and 27.4 g and 26 g and 26.7 g and 20.4 g and 27.5 g
weight of normal nude mice during QST treatment ([6]; treatment day 3): 27.4 g and 27.9 g and 25.6 g and 27.2 g and 20.3 g and 27.8 g
weight of normal nude mice during QST treatment ([6]; treatment day 4): 28.1 g and 27.7 g and 25.7 g and 27 g (2×) and 20.8 g
weight of normal nude mice during QST treatment ([6]; treatment day 5): 27.5 g and 27.4 g and 26.5 g and 27.1 g (2×) and 20.3 g
weight of normal nude mice during QST treatment ([6]; treatment day 6): 27.4 g and 27 g and 26.9 g and 27.2 g and 20.2 g and 27.1 g

Source: article PMC10721329, “Quisinostat is a brain-penetrant radiosensitizer in glioblastoma” (JCI Insight, 2023)
